Each structure is given as a SMILES string. Converted amounts (≈) assume the structure as drawn.

Data set [1] can be described thus: Human liver microsome (HLM) metabolic stability assay. It is filed as in vitro ADME. The following applies: human liver microsomes. The gist of the method:
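Compound at 1 uM incubated with human liver microsomes at 37° C. for 60 min after NADPH addition. Aliquots quenched in cold acetonitrile at 0, 5, 15, 30 and 60 min and analysed by LC/MS/MS. t1/2 from ln(% remaining) vs time slope; CLint, CLh and % Qh derived from it (n=1).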
A general note: Liver microsomes are vesicles of endoplasmic reticulum, rich in cytochrome P450 enzymes.

Another data set in a line: physchem. The conditions noted are these: kinetic from dmso stock.
Data set [2] addresses human soluble guanylate cyclase alpha 1 and beta 1 subunits (sGC) (Homo sapiens (Human), UniProt Q02108+Q02153). Kind of data set: sGC cellular activator assay (cGMP, HTRF), in the presence and absence of 50% human serum. The class given is cell-based. The conditions noted are these: CHO cells stably expressing human sGC alpha 1/beta 1, preincubated with 40 microM ODQ; cGMP by HTRF; Table 2 does not state whether with or without 50% human serum. In outline:
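Heme-oxidized conditions: ODQ (40 microM, 1 h) pretreatment of CHO cells stably expressing human α1/β1 sGC, in buffer containing 0.1% BSA and IBMX.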
A general note: Time-resolved FRET reads energy transfer from a long-lived donor to a nearby acceptor.

[3] abbreviates: pH 2.2, aqueous buffer, Solubility (pH 2.2).
[4] abbreviates: pH 4.5, aqueous buffer, Solubility (pH 4.5).
[5] abbreviates: pH 6.8, aqueous buffer, Solubility (pH 6.8).

human soluble guanylate cyclase alpha 1 and beta 1 subunits (sGC), sequence (Q02108 whole entry partner): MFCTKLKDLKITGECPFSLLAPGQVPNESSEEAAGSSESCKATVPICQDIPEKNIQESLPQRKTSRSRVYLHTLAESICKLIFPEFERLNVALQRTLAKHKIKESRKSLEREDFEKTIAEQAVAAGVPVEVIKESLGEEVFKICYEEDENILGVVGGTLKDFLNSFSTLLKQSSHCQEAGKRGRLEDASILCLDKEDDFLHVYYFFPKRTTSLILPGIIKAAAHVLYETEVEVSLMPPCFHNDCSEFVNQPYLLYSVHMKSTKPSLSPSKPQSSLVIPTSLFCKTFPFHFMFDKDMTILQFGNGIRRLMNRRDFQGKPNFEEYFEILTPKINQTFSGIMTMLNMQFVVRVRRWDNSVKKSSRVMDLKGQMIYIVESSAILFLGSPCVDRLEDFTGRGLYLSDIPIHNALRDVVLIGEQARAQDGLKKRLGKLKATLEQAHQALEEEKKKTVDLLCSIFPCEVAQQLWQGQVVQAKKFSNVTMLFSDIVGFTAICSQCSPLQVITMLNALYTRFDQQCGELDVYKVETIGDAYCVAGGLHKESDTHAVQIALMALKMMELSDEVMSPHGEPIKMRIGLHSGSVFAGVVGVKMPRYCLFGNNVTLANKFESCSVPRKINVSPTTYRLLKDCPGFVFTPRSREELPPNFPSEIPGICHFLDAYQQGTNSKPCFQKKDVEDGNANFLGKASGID
human soluble guanylate cyclase alpha 1 and beta 1 subunits (sGC), sequence (Q02153 whole entry): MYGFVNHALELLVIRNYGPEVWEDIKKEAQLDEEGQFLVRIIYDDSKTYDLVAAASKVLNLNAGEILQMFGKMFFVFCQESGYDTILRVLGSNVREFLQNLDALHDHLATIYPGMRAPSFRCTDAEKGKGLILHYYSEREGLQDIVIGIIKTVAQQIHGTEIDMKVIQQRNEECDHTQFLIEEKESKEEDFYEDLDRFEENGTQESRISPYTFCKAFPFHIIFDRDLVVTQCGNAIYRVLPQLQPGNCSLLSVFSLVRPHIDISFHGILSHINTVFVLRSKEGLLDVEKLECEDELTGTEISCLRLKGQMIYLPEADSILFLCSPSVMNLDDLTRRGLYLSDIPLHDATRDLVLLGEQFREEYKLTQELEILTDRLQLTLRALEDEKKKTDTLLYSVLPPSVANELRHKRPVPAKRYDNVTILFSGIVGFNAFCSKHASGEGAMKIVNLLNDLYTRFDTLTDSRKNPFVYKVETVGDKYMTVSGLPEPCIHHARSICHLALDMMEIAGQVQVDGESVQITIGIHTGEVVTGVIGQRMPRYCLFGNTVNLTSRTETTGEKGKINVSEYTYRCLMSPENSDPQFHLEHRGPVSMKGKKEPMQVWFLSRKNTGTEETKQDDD

Regarding `Cc1ccc(OCc2ccc3c(c2C)CCN(C2COC2)C3)c(-c2cccc(N3CC[C@@]4(C(=O)O)C[C@H]4C3)n2)c1` [Compound 19], in data set [1], the “Metabolic stability (Qh %), % hepatic blood flow” value (shortened to “Metabolic stability (Qh %)”) worked out at 63%. The solubility (usually the dissolved amount per volume that the medium holds) at 24 h came out at 0.11 mg/mL (≈ 204 µM) in the data set “physchem” (setting [3]), 0.082 mg/mL (≈ 152 µM) in the data set “physchem” (setting [4]) and 0.032 mg/mL (≈ 59.3 µM) in the data set “physchem” (setting [5]). Besides, in data set [2], the EC50 (as a rule, the concentration giving half of the maximal effect) was 0.008 µM.

As for `Cc1c(COc2ccccc2-c2cccc(N3CC[C@@]4(C(=O)O)C[C@H]4C3)n2)ccc2c1CCN(C1CCOCC1)C2` [Compound 6], the “Metabolic stability (Qh %)” value in data set [1] worked out at 54%. In addition, the solubility at 24 h in the data set “physchem” (setting [3]) is 0.16 mg/mL (≈ 289 µM); in the data set “physchem” (setting [4]), 0.13 mg/mL (≈ 235 µM); in “physchem” (setting [5]), 0.06 mg/mL (≈ 108 µM). In data set [2], this molecule registered an EC50 of 0.003 µM.

With `COC[C@H]1N(c2cccc(-c3cccc(C)c3OCc3cc(F)c4c(c3)CCN(C3CCOCC3)C4)n2)C[C@@H]2C[C@@]21C(=O)O` [Compound 216], the “Metabolic stability (Qh %)” value in data set [1] was 39%. Moreover, the results for the solubility at 24 h in “physchem” (setting [3]), in “physchem” (setting [4]) and in “physchem” (setting [5]) were 0.144 mg/mL (≈ 240 µM), 0.139 mg/mL (≈ 231 µM) and 0.134 mg/mL (≈ 223 µM), respectively. Besides, a half-maximal response in data set [2] (EC50) required 0.014 µM.

With `Cc1cccc(-c2csc(N3C[C@@H]4C[C@]4(C(=O)O)C3)n2)c1OCc1ccc2c(c1C)CCN(C1COC1)CC2` [Compound 143], the “Metabolic stability (Qh %)” value in data set [1] is on record as below 24%. Further, the solubility at 24 h in “physchem” (setting [3]) turned out to be 0.11 mg/mL (≈ 202 µM); in “physchem” (setting [4]) it was 0.07 mg/mL (≈ 128 µM); in the data set “physchem” (setting [5]), 0.056 mg/mL (≈ 103 µM). In data set [2], the EC50 came to 0.009 µM.

Turning to `CO[C@@H]1CN(c2cccc(-c3cccc(C)c3OCc3ccc4c(c3C)CCN(C3COC3)CC4)n2)CC[C@H]1C(=O)O` [Compound 290], the “Metabolic stability (Qh %)” value in data set [1] is below 24%. The solubility at 24 h in the data set “physchem” (setting [3]) is 0.119 mg/mL (≈ 208 µM); in the data set “physchem” (setting [4]), 0.08 mg/mL (≈ 140 µM); in the data set “physchem” (setting [5]) it was 0.0665 mg/mL (≈ 116 µM). In data set [2], this molecule registered a half-maximal effective concentration (EC50) of 0.228 µM.

In the case of `COC[C@H]1N(c2cccc(-c3cccc(C)c3OCc3ccc4c(c3)CN(C3CCOCC3)CC4)n2)C[C@@H]2C[C@@]21C(=O)O` [Compound 224], in data set [1], the “Metabolic stability (Qh %)” value stood at 31%. Further, the solubility at 24 h was determined as 0.15 mg/mL (≈ 257 µM) in the data set “physchem” (setting [3]), 0.145 mg/mL (≈ 249 µM) in the data set “physchem” (setting [4]) and 0.136 mg/mL (≈ 233 µM) in “physchem” (setting [5]). In data set [2], this molecule registered a 50% effective concentration (EC50) of 0.051 µM.

For the molecule `Cc1cccc(-c2cccc(N3CC[C@H](C(=O)O)[C@@H]4OCCC[C@H]43)n2)c1OCc1ccc2c(c1C)CCN(C1COC1)CC2` [Compound 336], the “Metabolic stability (Qh %)” value in data set [1] is listed as 32%. The results for the solubility at 24 h in “physchem” (setting [3]), in “physchem” (setting [4]) and in “physchem” (setting [5]) were 0.0699 mg/mL (≈ 117 µM), 0.0376 mg/mL (≈ 62.9 µM) and 0.03 mg/mL (≈ 50.2 µM), respectively. The molecule further registered an EC50 in data set [2] of 0.054 µM.

Turning to `CO[C@H]1CN(c2cccc(-c3cccc(C)c3OCc3ccc4c(c3F)CCN(C3COC3)CC4)n2)CC[C@H]1C(=O)O` [Compound 278], the “Metabolic stability (Qh %)” value in data set [1] is recorded as below 24%. Also, the solubility at 24 h in “physchem” (setting [3]) came out at 0.122 mg/mL (≈ 212 µM); in the data set “physchem” (setting [4]), 0.0851 mg/mL (≈ 148 µM); in the data set “physchem” (setting [5]), 0.068 mg/mL (≈ 118 µM). Also, in data set [2], the response was half-maximal at 0.006 µM (EC50).

Regarding `CO[C@@H]1CN(c2nc(-c3cccc(Cl)c3OCc3ccc4c(c3)[C@@H](C)CN(C3CCOCC3)CC4)cs2)CC[C@@H]1C(=O)O` [Compound 332], the “Metabolic stability (Qh %)” value in data set [1] is listed as below 24%. The figures for the solubility at 24 h in “physchem” (setting [3]), in the data set “physchem” (setting [4]) and in the data set “physchem” (setting [5]) were 0.127 mg/mL (≈ 202 µM), 0.0866 mg/mL (≈ 138 µM) and 0.0768 mg/mL (≈ 123 µM), respectively. This molecule returned a half-maximal effective concentration (EC50) in data set [2] of 0.015 µM.

For the molecule `CO[C@H]1CN(c2nc(-c3cccc(C)c3OCc3ccc4c(c3C)CCN(C3CCOCC3)CC4)cs2)CC[C@H]1C(=O)O` [Compound 288], the “Metabolic stability (Qh %)” value in data set [1] was below 24%. Also, the solubility at 24 h was found to be 0.117 mg/mL (≈ 193 µM) in the data set “physchem” (setting [3]), 0.0755 mg/mL (≈ 125 µM) in the data set “physchem” (setting [4]) and 0.0718 mg/mL (≈ 119 µM) in “physchem” (setting [5]). In data set [2], the EC50 amounted to 0.018 µM.

Consider `Cc1ccc(OCc2cc(C)c3c(c2)CCN(C2CCCOC2)C3)c(-c2csc(N3CC[C@@]4(C(=O)O)C[C@H]4C3)n2)c1` (mixture of isomers) [Compound 121], for which the “Metabolic stability (Qh %)” value in data set [1] is on record as below 24%. Also, the figures for the solubility at 24 h in “physchem” (setting [3]), in the data set “physchem” (setting [4]) and in the data set “physchem” (setting [5]) were 0.11 mg/mL, 0.014 mg/mL and 0.00069 mg/mL, respectively. This molecule also displayed a half-maximal effective concentration (EC50) in data set [2] of 0.01 µM.

For `COc1cc(COc2c(C)cccc2-c2csc(N3CC[C@@H](C(=O)O)[C@@H](OC)C3)n2)cc2c1CN(C1COC1)CC2` [Compound 209], in data set [1], the “Metabolic stability (Qh %)” value was below 24%. Moreover, the solubility at 24 h turned out to be 0.128 mg/mL (≈ 220 µM) in “physchem” (setting [3]), 0.0839 mg/mL (≈ 145 µM) in “physchem” (setting [4]) and 0.0887 mg/mL (≈ 153 µM) in the data set “physchem” (setting [5]). For the same molecule, the 50% effective concentration (EC50) in data set [2] stood at 0.014 µM.

Regarding `Cc1cc(COc2c(C)cccc2-c2csc(N3CC[C@@]4(C(=O)O)C[C@H]4C3)n2)c(C)c2c1CN(C1COC1)CC2` [Compound 102], the “Metabolic stability (Qh %)” value in data set [1] turned out to be 52%. Moreover, the solubility at 24 h in the data set “physchem” (setting [3]) turned out to be 0.13 mg/mL (≈ 232 µM); in “physchem” (setting [4]) it was 0.041 mg/mL (≈ 73.2 µM); in the data set “physchem” (setting [5]) it was 0.054 mg/mL (≈ 96.5 µM). Besides, the EC50 in data set [2] was found to be 0.003 µM.

In the case of `Cc1ccc(OCc2ccc3c(c2)CCN(C2CCOCC2)C3)c(-c2csc(N3CC[C@@]4(C(=O)O)C[C@H]4C3)n2)c1` [Compound 110], in data set [1], the “Metabolic stability (Qh %)” value is on record as below 24%. Also, the solubility at 24 h in “physchem” (setting [3]) worked out at 0.11 mg/mL (≈ 197 µM); in “physchem” (setting [4]) it was 0.054 mg/mL (≈ 96.5 µM); in the data set “physchem” (setting [5]), 0.00058 mg/mL (≈ 1.04 µM). The molecule also had a concentration for a half-maximal effect (EC50) in data set [2] of 0.017 µM.

On to `Cc1ccc(OCc2cc(C)c3c(c2)CCN(C2CCOCC2)C3)c(-c2csc(N3CC[C@H](C(=O)O)[C@H](C)C3)n2)c1` [Compound 236], for which the “Metabolic stability (Qh %)” value in data set [1] is recorded as below 24%. Moreover, the solubility at 24 h in the data set “physchem” (setting [3]) worked out at 0.141 mg/mL (≈ 245 µM); in “physchem” (setting [4]), 0.131 mg/mL (≈ 228 µM); in “physchem” (setting [5]), 0.129 mg/mL (≈ 225 µM). Also, a half-maximal effect in data set [2] (EC50) was put at 0.066 µM.

On to `Cc1cccc(-c2csc(N3CC[C@@]4(C(=O)O)C[C@H]4C3)n2)c1OCc1ccc2c(c1)CCN(C1CCOCC1)C2` [Compound 84], for which the “Metabolic stability (Qh %)” value in data set [1] is on record as below 24%. Moreover, the figures for the solubility at 24 h in the data set “physchem” (setting [3]), in the data set “physchem” (setting [4]) and in the data set “physchem” (setting [5]) were 0.12 mg/mL (≈ 214 µM), 0.07 mg/mL (≈ 125 µM) and 0.053 mg/mL (≈ 94.7 µM), respectively. The molecule also gave an EC50 in data set [2] of 0.027 µM.

With `Cc1ccc(OCc2ccc3c(c2)CCN(C2CCCOC2)C3)c(-c2csc(N3CC[C@@]4(C(=O)O)C[C@H]4C3)n2)c1` (stereo partly shown) [Compound 113], the “Metabolic stability (Qh %)” value in data set [1] is reported as below 24%. For the same molecule, the solubility at 24 h stood at 0.13 mg/mL (≈ 232 µM) in “physchem” (setting [3]), 0.036 mg/mL (≈ 64.3 µM) in the data set “physchem” (setting [4]) and 0.0027 mg/mL (≈ 4.82 µM) in the data set “physchem” (setting [5]). In data set [2], this molecule showed a concentration for a half-maximal effect (EC50) of 0.005 µM.

Take `Cc1c(COc2ccccc2-c2cccc(N3CC[C@@]4(C(=O)O)C[C@H]4C3)n2)ccc2c1CCN(C[C@H]1COCCO1)C2` [Compound 9]: the “Metabolic stability (Qh %)” value in data set [1] is on record as 37%. Moreover, the values for the solubility at 24 h in “physchem” (setting [3]), in the data set “physchem” (setting [4]) and in “physchem” (setting [5]) were 0.13 mg/mL (≈ 228 µM), 0.11 mg/mL (≈ 193 µM) and 0.053 mg/mL (≈ 93 µM), respectively. Besides, the concentration giving a half-maximal response (EC50) in data set [2] worked out at 0.001 µM.

Regarding `Cc1c(COc2ccccc2-c2cccc(N3CC[C@@]4(C(=O)O)C[C@H]4C3)n2)ccc2c1CCN(Cc1cncn1C)C2` [Compound 308], in data set [1], the “Metabolic stability (Qh %)” value was determined as 43%. Also, the solubility at 24 h in the data set “physchem” (setting [3]) stood at 0.135 mg/mL (≈ 239 µM); in “physchem” (setting [4]) it was 0.0975 mg/mL (≈ 173 µM); in the data set “physchem” (setting [5]), 0.0001 mg/mL (≈ 0.177 µM). Further, the midpoint of the response in data set [2], the EC50, lay at 0.01 µM.

On to `CO[C@@H]1CN(c2cccc(-c3cccc(C)c3OCc3cc(C)c4c(c3)CCN(C3COC3)CC4)n2)CC[C@@H]1C(=O)O` [Compound 291], for which, in data set [1], the “Metabolic stability (Qh %)” value was below 24%. Also, the solubility at 24 h in the data set “physchem” (setting [3]) stood at 0.128 mg/mL (≈ 224 µM); in “physchem” (setting [4]), 0.0847 mg/mL (≈ 148 µM); in the data set “physchem” (setting [5]) it was 0.0623 mg/mL (≈ 109 µM). This molecule also returned a concentration giving a half-maximal response (EC50) in data set [2] of 0.002 µM.

The record behind these values is US9353090B2, “Heterocyclic carboxylic acids as activators of soluble guanylate cyclase” (Boehringer Ingelheim International GmbH, priority 2014, dated 2016).
